The text below walks through data of article PMC2045673, “Site-specific acetylation of ISWI by GCN5” (BMC Molecular Biology, 2007).

Each structure is given as a SMILES string.

What all share (assay): radiometric HAT assay, SDS-PAGE autoradiography
Assay type in all cases: biochemical

One assay addresses T1, MOF (HA-MOF) (Drosophila melanogaster, UniProt O02193).
T1 construct: HA-tagged recombinant MOF
T1 sequence (O02193 1-827): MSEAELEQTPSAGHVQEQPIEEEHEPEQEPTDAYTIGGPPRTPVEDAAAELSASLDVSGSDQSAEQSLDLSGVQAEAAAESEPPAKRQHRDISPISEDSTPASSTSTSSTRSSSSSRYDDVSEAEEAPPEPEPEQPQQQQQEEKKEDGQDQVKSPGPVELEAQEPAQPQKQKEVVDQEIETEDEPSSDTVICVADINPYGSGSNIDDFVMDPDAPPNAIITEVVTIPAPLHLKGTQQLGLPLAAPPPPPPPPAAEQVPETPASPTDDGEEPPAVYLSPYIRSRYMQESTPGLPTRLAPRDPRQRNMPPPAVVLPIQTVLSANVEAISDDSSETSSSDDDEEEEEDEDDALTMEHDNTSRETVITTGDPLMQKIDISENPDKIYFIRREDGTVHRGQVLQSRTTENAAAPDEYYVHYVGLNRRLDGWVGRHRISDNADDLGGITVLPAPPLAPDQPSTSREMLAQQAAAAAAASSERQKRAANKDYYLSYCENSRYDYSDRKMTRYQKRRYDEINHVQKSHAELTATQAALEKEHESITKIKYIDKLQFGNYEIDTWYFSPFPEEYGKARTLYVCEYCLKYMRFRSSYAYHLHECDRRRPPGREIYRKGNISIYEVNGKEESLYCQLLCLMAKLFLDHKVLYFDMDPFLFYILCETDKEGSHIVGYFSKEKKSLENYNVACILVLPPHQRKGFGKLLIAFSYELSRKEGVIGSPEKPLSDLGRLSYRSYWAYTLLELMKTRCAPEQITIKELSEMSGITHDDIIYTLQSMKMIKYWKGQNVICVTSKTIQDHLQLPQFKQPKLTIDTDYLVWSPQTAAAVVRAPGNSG
The note with it: labelled compound; co-substrate histones; pH 7.8, 26 °C.

The target of another assay is T2, GCN5 (GST-hGCN5) (Homo sapiens, UniProt Q92830).
T2 construct: gene KAT2A; GST-tagged, recombinant from E. coli
The note with it: labelled compound; co-substrate histones, ISWI or peptide; pH 7.8, 26 °C.

For the next assay, the target named is T3, p300 (FLAG-p300) (Homo sapiens, UniProt Q09472).
T3 construct: gene EP300; FLAG-tagged recombinant p300
The note with it: labelled compound; co-substrate histones, ISWI or peptide; pH 7.8, 26 °C.

T2 sequence (Q92830 whole entry): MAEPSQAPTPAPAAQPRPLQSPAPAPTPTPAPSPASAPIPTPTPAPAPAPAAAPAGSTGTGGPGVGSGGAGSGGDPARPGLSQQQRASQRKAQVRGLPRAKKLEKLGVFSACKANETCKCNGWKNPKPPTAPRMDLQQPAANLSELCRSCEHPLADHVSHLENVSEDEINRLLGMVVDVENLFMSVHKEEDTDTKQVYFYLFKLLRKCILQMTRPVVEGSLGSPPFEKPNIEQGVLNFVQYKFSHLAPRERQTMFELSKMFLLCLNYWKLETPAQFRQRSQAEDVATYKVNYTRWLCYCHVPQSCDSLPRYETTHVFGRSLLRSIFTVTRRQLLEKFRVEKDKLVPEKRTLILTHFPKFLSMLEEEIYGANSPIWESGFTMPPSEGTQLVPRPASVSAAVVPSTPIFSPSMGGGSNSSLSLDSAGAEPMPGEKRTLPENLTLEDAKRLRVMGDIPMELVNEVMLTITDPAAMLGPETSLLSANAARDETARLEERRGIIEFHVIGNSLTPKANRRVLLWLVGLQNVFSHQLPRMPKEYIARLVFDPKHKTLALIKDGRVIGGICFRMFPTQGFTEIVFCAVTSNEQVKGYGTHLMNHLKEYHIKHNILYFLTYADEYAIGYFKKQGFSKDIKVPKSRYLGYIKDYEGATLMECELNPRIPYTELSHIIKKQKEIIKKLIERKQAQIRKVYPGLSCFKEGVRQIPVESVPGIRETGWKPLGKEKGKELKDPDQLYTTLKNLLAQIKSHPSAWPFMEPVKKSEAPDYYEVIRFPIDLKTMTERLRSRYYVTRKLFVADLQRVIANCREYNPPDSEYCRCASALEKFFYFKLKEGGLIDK
T3 sequence (Q09472 2-2414): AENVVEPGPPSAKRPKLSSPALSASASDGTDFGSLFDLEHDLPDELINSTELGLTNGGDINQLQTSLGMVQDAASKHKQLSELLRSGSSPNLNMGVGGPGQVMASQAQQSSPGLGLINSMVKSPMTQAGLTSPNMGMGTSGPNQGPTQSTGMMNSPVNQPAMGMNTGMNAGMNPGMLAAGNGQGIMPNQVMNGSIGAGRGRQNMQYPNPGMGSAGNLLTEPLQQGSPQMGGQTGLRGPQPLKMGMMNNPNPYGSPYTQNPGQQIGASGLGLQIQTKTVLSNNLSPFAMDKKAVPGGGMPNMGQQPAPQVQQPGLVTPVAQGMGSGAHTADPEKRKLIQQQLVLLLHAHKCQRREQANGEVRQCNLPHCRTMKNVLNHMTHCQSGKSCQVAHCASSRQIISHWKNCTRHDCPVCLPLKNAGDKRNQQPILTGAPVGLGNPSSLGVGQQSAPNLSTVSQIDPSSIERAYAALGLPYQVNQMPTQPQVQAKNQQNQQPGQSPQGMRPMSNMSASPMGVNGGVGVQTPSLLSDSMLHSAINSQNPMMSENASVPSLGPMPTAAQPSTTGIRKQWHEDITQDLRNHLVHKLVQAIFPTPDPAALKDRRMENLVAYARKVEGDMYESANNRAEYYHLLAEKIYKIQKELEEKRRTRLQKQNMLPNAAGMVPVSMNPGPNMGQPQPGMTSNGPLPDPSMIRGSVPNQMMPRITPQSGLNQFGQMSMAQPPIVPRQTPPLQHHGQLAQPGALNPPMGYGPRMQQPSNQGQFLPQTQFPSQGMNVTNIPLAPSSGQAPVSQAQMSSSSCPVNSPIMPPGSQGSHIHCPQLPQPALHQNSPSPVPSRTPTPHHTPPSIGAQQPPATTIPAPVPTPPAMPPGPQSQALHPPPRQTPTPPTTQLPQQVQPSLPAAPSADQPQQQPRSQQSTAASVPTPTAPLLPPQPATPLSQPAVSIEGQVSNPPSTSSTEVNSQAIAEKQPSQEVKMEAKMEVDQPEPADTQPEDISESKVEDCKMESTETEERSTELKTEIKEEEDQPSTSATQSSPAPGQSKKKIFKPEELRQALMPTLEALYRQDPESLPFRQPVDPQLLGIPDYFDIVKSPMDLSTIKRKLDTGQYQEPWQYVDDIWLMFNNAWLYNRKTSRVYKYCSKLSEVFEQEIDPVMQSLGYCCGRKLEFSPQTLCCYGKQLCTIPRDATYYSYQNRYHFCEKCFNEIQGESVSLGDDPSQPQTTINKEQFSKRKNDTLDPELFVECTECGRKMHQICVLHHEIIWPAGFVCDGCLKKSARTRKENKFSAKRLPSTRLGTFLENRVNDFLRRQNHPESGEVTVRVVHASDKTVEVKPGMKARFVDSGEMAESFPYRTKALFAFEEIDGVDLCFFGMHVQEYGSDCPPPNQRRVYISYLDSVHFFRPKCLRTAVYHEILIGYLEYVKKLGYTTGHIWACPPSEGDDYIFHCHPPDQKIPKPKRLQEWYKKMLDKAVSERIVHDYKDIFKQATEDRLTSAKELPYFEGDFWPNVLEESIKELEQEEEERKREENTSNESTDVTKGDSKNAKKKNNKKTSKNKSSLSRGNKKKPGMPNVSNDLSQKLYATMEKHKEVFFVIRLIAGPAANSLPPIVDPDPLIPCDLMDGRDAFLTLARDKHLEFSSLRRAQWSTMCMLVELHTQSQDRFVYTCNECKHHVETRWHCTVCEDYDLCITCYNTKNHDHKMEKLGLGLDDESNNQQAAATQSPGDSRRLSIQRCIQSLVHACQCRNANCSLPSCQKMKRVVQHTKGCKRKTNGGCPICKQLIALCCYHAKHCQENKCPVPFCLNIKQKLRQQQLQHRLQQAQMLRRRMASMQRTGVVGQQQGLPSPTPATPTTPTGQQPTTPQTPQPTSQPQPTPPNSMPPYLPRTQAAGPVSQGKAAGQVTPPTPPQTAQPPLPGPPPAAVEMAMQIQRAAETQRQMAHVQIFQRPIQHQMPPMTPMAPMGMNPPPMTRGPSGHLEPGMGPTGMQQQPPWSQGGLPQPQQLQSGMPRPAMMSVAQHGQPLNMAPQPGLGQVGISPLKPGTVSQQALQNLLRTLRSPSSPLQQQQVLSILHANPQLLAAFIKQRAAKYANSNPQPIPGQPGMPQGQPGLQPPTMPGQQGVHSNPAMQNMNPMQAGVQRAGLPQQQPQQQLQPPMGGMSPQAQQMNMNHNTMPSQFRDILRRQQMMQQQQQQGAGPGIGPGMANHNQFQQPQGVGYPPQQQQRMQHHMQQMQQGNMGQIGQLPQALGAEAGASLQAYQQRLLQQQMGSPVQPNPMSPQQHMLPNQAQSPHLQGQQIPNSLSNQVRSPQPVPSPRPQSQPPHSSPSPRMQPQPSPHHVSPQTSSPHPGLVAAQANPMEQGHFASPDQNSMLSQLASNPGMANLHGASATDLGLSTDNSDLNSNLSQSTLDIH

Consider `CC(=O)SCCNC(=O)CCNC(=O)[C@H](O)C(C)(C)COP(=O)(O)OP(=O)(O)OC[C@H]1O[C@@H](n2cnc3c(N)ncnc32)[C@H](O)[C@@H]1OP(=O)(O)O` [acetyl-CoA], for which the “radiometric HAT assay, SDS-PAGE autoradiography” value at MOF (HA-MOF) was “The histone acetyltransferase activities of recombinant GCN5, p300 and MOF were assayed”; on GCN5 (GST-hGCN5), “The histone acetyltransferase activities of recombinant GCN5, p300 and MOF were assayed”; on p300 (FLAG-p300), “The histone acetyltransferase activities of recombinant GCN5, p300 and MOF were assayed”.
